Key:
Experiment in all cases: normalised viability (% of control), CellTiter-Blue; higher = more viable cells (about 100 = DMSO control)
BT-474 [1] = settings: 100 nM; incubation time: 72 h
Description: (§1)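 DSRT, CellTiter-Blue viability, 72 h incubation. Signal is normalised to DMSO and benzethonium chloride controls. Value is the normalised response at dose 3.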

BT-549 [2] = settings: 100 nM; incubation time: 72 h
Description: as §1

CAL-120 [3] = settings: 100 nM; incubation time: 72 h
Description: as §1

CAL-148 [4] = settings: 10 nM; incubation time: 72 h
Description: as §1

CAL-51 [5] = settings: 10 nM; incubation time: 72 h
Description: as §1

CAL-85-1 [6] = settings: 10 nM; incubation time: 72 h
Description: as §1

DU-4475 [7] = settings: 10 nM; incubation time: 72 h
Description: as §1

HCC1143 [8] = settings: 100 nM; incubation time: 72 h
Description: as §1

HCC1599 [9] = settings: 100 nM; incubation time: 72 h
Description: as §1

HCC1937 [10] = settings: 100 nM; incubation time: 72 h
Description: as §1

HDQ-P1 [11] = settings: 10 nM; incubation time: 72 h
Description: as §1

Hs578T [12] = settings: 100 nM; incubation time: 72 h
Description: as §1

MDA-MB-231 [13] = settings: 100 nM; incubation time: 72 h
Description: as §1

MDA-MB-436 [14] = settings: 100 nM; incubation time: 72 h
Description: as §1

MDA-MB-453 [15] = settings: 10 nM; incubation time: 72 h
Description: as §1

MDA-MB-468 [16] = settings: 100 nM; incubation time: 72 h
Description: as §1

MFM-223 [17] = settings: 100 nM; incubation time: 72 h
Description: as §1

SK-BR-3 [18] = settings: 100 nM; incubation time: 72 h
Description: as §1

BT-474 [19] = settings: incubation time: 72 h
In short: (§2)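 Each entry is normalised viability at a single listed concentration within a series. It comes from breast cancer cell lines incubated 72 h with compound in 384-well plates, then measured with CellTiter-Blue fluorescence at 560/590 nm. Every plate was normalised between vehicle (100) and a positive kill control (0).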

BT-549 [20] = settings: incubation time: 72 h
In short: as §2

CAL-120 [21] = settings: incubation time: 72 h
In short: as §2

CAL-148 [22] = settings: incubation time: 72 h
In short: as §2

CAL-51 [23] = settings: incubation time: 72 h
In short: as §2

CAL-85-1 [24] = settings: incubation time: 72 h
In short: as §2

DU-4475 [25] = settings: incubation time: 72 h
In short: as §2

HCC1143 [26] = settings: incubation time: 72 h
In short: as §2

HCC1599 [27] = settings: incubation time: 72 h
In short: as §2

HCC1937 [28] = settings: incubation time: 72 h
In short: as §2

HDQ-P1 [29] = settings: incubation time: 72 h
In short: as §2

Hs578T [30] = settings: incubation time: 72 h
In short: as §2

MDA-MB-231 [31] = settings: incubation time: 72 h
In short: as §2

MDA-MB-436 [32] = settings: incubation time: 72 h
In short: as §2

MDA-MB-453 [33] = settings: incubation time: 72 h
In short: as §2

MDA-MB-468 [34] = settings: incubation time: 72 h
In short: as §2

MFM-223 [35] = settings: incubation time: 72 h
In short: as §2

SK-BR-3 [36] = settings: incubation time: 72 h
In short: as §2

COC(=O)C[C@](O)(CCCC(C)(C)O)C(=O)O[C@@H]1C(OC)=C[C@]23CCCN2CCc2cc4c(cc2[C@H]13)OCO4 [Omacetaxine mepesuccinate]
Settings	normalised viability [%]
BT-474 [1]	54.8
BT-549 [2]	19.2
CAL-51 [5]	92.8
CAL-85-1 [6]	79.7
CAL-120 [3]	15.1
CAL-148 [4]	67.6
DU-4475 [7]	25.1
HCC1143 [8]	37.7
HCC1599 [9]	29.4
HCC1937 [10]	14.9
HDQ-P1 [11]	73
Hs578T [12]	6.8
MDA-MB-231 [13]	22.1
MDA-MB-436 [14]	21.4
MDA-MB-453 [15]	90.2
MDA-MB-468 [16]	17.7
MFM-223 [17]	31
SK-BR-3 [18]	18.3

normalised viability [%]
Settings	3 nM	10 nM	30 nM	100 nM	1000 nM	10000 nM
BT-474 [19]	–	118	–	–	23	13.3
BT-549 [20]	–	87.2	–	–	7.63	4.5
CAL-51 [23]	101	–	31.6	11.8	–	–
CAL-85-1 [24]	86.8	–	25.3	9.04	–	–
CAL-120 [21]	–	69.2	–	–	7.92	5.91
CAL-148 [22]	96.3	–	26	14.8	–	–
DU-4475 [25]	81	–	2.2	4.43	–	–
HCC1143 [26]	–	87.2	–	–	14.2	11
HCC1599 [27]	–	68.9	–	–	17	12.9
HCC1937 [28]	–	55.9	–	–	13.9	14.3
HDQ-P1 [29]	92.5	–	24.6	14.9	–	–
Hs578T [30]	–	111	–	–	1.46	1.1
MDA-MB-231 [31]	–	87.9	–	–	6.79	3.89
MDA-MB-436 [32]	–	88.5	–	–	19	11.7
MDA-MB-453 [33]	109	–	44.5	21.4	–	–
MDA-MB-468 [34]	–	90.2	–	–	4.25	3.02
MFM-223 [35]	–	88.3	–	–	8.87	4.39
SK-BR-3 [36]	–	89.4	–	–	6.71	3.15

— the supplement of paper PMC4862054
